Numbered stars: 1 amine (or outer) side, 2 acyl side, 3 side chain; on linkers, the order of the positions; unused ones are H or OH. Square brackets hold non-standard residues; d marks the D form. Side chains are listed from the residue outwards. Peptide text beside a SMILES is read from it. * marks the point of attachment. Isobutyryl(2-(3-CN-5-F-Ph)) = CC(C)(C(=O)*)c1cc(F)cc(C#N)c1; C20 diacid = O=C(O)CCCCCCCCCCCCCCCCCCC(=O)*; γGlu = O=C(O)[C@H](CCC(=O)[*:2])N[*:1]; AEEA = NCCOCCOCC(=O)O; Aib = CC(C)(N)C(=O)O; βAla = NCCC(=O)O
Experiment: Phase 1 SAD Cohorts 1-5: safety and tolerability (adverse events)
Type: in vivo, human
Details: for AE: Abdominal bloating / AE: Abdominal cramp / AE: Abdominal cramp with loose bowel / AE: Abdominal pain / AE: Abnormal LFTs / AE: Constipation / AE: Diarrhea / AE: Dyspepsia / AE: Dysphasia / AE: Early satiety / AE: Emesis / AE: Exacerbated GERD / AE: Fatigue / AE: Headache / AE: Indigestion / AE: Lethargy / AE: Loose bowel motion / AE: Loose stools / AE: Loss of Appetite / AE: Microscopic hematuria / AE: Nausea / AE: Reduced appetite / AE: Reduced bowel motion / AE: Reflux / AE: Throat discomfort / AE: Vomiting / Life-threatening TEAE / Moderate TEAEs / Related TEAEs / Serious TEAEs / Severe TEAEs / TEAE leading to death / TEAEs: N = 8, blinded
Source text: This Example outlines the protocol for a Phase 1 randomized, double-blind, placebo-controlled study to evaluate the safety, tolerability, pharmacokinetics, and pharmacodynamics of CT-388 in otherwise healthy overweight and obese adult participants and in obese patients with type 2 diabetes mellitus.
The primary objective of this study is to determine the safety and tolerability of CT-388 in otherwise healthy overweight and obese adult participants when administered as a single dose of 0.5, 2.0, 5.0, 6.0, or 7.5 mg.
Safety and tolerability will be assessed by monitoring adverse events (AE) including local injection-site reactions, measuring vital signs and ECGs, and performing clinical laboratory blood and urine analyses.
• Cohort 1: One dose containing 0.5 mg of CT-388 or matched placebo administered subcutaneously in the abdomen • Cohort 2: One dose containing 2.0 mg of CT-388 or matched placebo administered subcutaneously in the abdomen • Cohort 3: One dose containing 5.0 mg of CT-388 or matched placebo administered subcutaneously in the abdomen • Cohort 4: One dose containing 7.5 mg of CT-388 or matched placebo administered subcutaneously in the abdomen • Cohort 5: One dose containing 6.0 mg of CT-388 or matched placebo administered subcutaneously in the abdomen
A Phase 1, randomized, placebo-controlled, double-blind study was conducted where single ascending doses (SAD; n=40; 0.5-7.5 mg) and multiple ascending doses (MAD; n=24; 5-12 mg via titration in 3 cohorts) were administered as described in Example 1 to overweight/obese adults.

[1] = Cohort 1, 0.5 mg/Placebo single SC dose
[2] = Cohort 2, 2 mg/Placebo single SC dose
[3] = Cohort 3, 5 mg/Placebo single SC dose
[4] = Cohort 4, 7.5 mg/Placebo single SC dose
[5] = Cohort 5, 6 mg/Placebo single SC dose

## CC[C@H](C)[C@H](NC(=O)[C@H](CC(C)C)NC(=O)[C@H](Cc1c[nH]c2ccccc12)NC(=O)[C@H](CCC(N)=O)NC(=O)[C@@H](NC(=O)[C@H](Cc1ccccc1)NC(=O)[C@H](C)NC(=O)[C@H](CCCCNC(=O)COCCOCCNC(=O)COCCOCCNC(=O)CC[C@H](NC(=O)CCCCCCCCCCCCCCCCCCC(=O)O)C(=O)O)NC(=O)[C@H](CCC(N)=O)NC(=O)[C@H](C)NC(=O)[C@@H](NC(=O)[C@H](CCCCN)NC(=O)[C@H](CC(=O)O)NC(=O)[C@H](CC(C)C)NC(=O)C(C)(C)NC(=O)[C@@H](NC(=O)[C@H](CO)NC(=O)[C@H](Cc1ccc(O)cc1)NC(=O)[C@H](CC(=O)O)NC(=O)[C@H](CO)NC(=O)[C@@H](NC(=O)[C@H](Cc1ccccc1)NC(=O)[C@@H](NC(=O)CNC(=O)[C@H](CCC(=O)O)NC(=O)CCNC(=O)C(C)(C)c1cc(F)cc(C#N)c1)[C@@H](C)O)[C@@H](C)O)[C@@H](C)CC)[C@@H](C)CC)C(C)C)C(=O)N[C@@H](C)C(=O)NCC(=O)NCC(=O)N1CCC[C@H]1C(=O)N[C@@H](CO)C(=O)N[C@@H](CO)C(=O)NCC(=O)N[C@@H](C)C(=O)N1CCC[C@H]1C(=O)N1CCC[C@H]1C(=O)N1CCC[C@H]1C(=O)N[C@@H](CO)C(N)=O [CT-388] ({Isobutyryl(2-(3-CN-5-F-Ph))-βAla}-EGTFTSDYSI[Aib]LDKIAQK([AEEA-AEEA-γGlu-C20 diacid])AFVQWLIAGGPSSGAPPPS-NH2)
[1]
  AE: Abdominal bloating: 0
  AE: Abdominal cramp: 0
  AE: Abdominal cramp with loose bowel: 0
  AE: Abdominal pain: 0
  AE: Abnormal LFTs: 0
  AE: Constipation: 0
  AE: Diarrhea: 0
  AE: Dyspepsia: 0
  AE: Dysphasia: 0
  AE: Early satiety: 0
  AE: Emesis: 0
  AE: Exacerbated GERD: 0
  AE: Fatigue: 0
  AE: Headache: 0
  AE: Indigestion: 0
  AE: Lethargy: 0
  AE: Loose bowel motion: 0
  AE: Loose stools: 0
  AE: Loss of Appetite: 0
  AE: Microscopic hematuria: 0
  AE: Nausea: 0
  AE: Reduced appetite: 0
  AE: Reduced bowel motion: 0
  AE: Reflux: 0
  AE: Throat discomfort: 0
  AE: Vomiting: 0
  Life-threatening TEAE: 0
  Moderate TEAEs: 0
  Related TEAEs: 0
  Serious TEAEs: 0
  Severe TEAEs: 0
  TEAE leading to death: 0
  TEAEs: 8
[2]
  AE: Abdominal bloating: 0
  AE: Abdominal cramp: 0
  AE: Abdominal cramp with loose bowel: 2 (25.0%)
  AE: Abdominal pain: 0
  AE: Abnormal LFTs: 0
  AE: Constipation: 2 (25.0%)
  AE: Diarrhea: 0
  AE: Dyspepsia: 0
  AE: Dysphasia: 0
  AE: Early satiety: 1 (12.5%)
  AE: Emesis: 0
  AE: Exacerbated GERD: 0
  AE: Fatigue: 2 (25.0%)
  AE: Headache: 1 (12.5%)
  AE: Indigestion: 0
  AE: Lethargy: 1 (12.5%)
  AE: Loose bowel motion: 0
  AE: Loose stools: 0
  AE: Loss of Appetite: 2 (25.0%)
  AE: Microscopic hematuria: 0
  AE: Nausea: 0
  AE: Reduced appetite: 0
  AE: Reduced bowel motion: 0
  AE: Reflux: 0
  AE: Throat discomfort: 0
  AE: Vomiting: 0
  Life-threatening TEAE: 0
  Moderate TEAEs: 1
  Related TEAEs: 6
  Serious TEAEs: 0
  Severe TEAEs: 0
  TEAE leading to death: 0
  TEAEs: 8
[3]
  AE: Abdominal bloating: 0
  AE: Abdominal cramp: 0
  AE: Abdominal cramp with loose bowel: 0
  AE: Abdominal pain: 0
  AE: Abnormal LFTs: 0
  AE: Constipation: 0
  AE: Diarrhea: 0
  AE: Dyspepsia: 1 (12.5%)
  AE: Dysphasia: 1 (12.5%)
  AE: Early satiety: 0
  AE: Emesis: 2 (25.0%)
  AE: Exacerbated GERD: 0
  AE: Fatigue: 0
  AE: Headache: 0
  AE: Indigestion: 1 (12.5%)
  AE: Lethargy: 0
  AE: Loose bowel motion: 0
  AE: Loose stools: 0
  AE: Loss of Appetite: 1 (12.5%)
  AE: Microscopic hematuria: 1 (12.5%)
  AE: Nausea: 0
  AE: Reduced appetite: 0
  AE: Reduced bowel motion: 0
  AE: Reflux: 0
  AE: Throat discomfort: 0
  AE: Vomiting: 0
  Life-threatening TEAE: 0
  Moderate TEAEs: 0
  Related TEAEs: 4
  Serious TEAEs: 0
  Severe TEAEs: 0
  TEAE leading to death: 0
  TEAEs: 6
[4]
  AE: Abdominal bloating: 1 (12.5%)
  AE: Abdominal cramp: 1 (12.5%)
  AE: Abdominal cramp with loose bowel: 0
  AE: Abdominal pain: 0
  AE: Abnormal LFTs: 1 (12.5%)
  AE: Constipation: 0
  AE: Diarrhea: 2 (25.0%)
  AE: Dyspepsia: 0
  AE: Dysphasia: 0
  AE: Early satiety: 0
  AE: Emesis: 0
  AE: Exacerbated GERD: 1 (12.5%)
  AE: Fatigue: 0
  AE: Headache: 2 (25.0%)
  AE: Indigestion: 0
  AE: Lethargy: 0
  AE: Loose bowel motion: 0
  AE: Loose stools: 1 (12.5%)
  AE: Loss of Appetite: 1 (12.5%)
  AE: Microscopic hematuria: 0
  AE: Nausea: 6 (75.0%)
  AE: Reduced appetite: 2 (25.0%)
  AE: Reduced bowel motion: 1 (12.5%)
  AE: Reflux: 2 (25.0%)
  AE: Throat discomfort: 1 (12.5%)
  AE: Vomiting: 3 (37.5%)
  Life-threatening TEAE: 0
  Moderate TEAEs: 5
  Related TEAEs: 7
  Serious TEAEs: 1
  Severe TEAEs: 1
  TEAE leading to death: 0
  TEAEs: 8
[5]
  AE: Abdominal bloating: 0
  AE: Abdominal cramp: 0
  AE: Abdominal cramp with loose bowel: 0
  AE: Abdominal pain: 1 (12.5%)
  AE: Abnormal LFTs: 0
  AE: Constipation: 1 (12.5%)
  AE: Diarrhea: 0
  AE: Dyspepsia: 0
  AE: Dysphasia: 0
  AE: Early satiety: 0
  AE: Emesis: 0
  AE: Exacerbated GERD: 0
  AE: Fatigue: 0
  AE: Headache: 1 (12.5%)
  AE: Indigestion: 0
  AE: Lethargy: 0
  AE: Loose bowel motion: 1 (12.5%)
  AE: Loose stools: 0
  AE: Loss of Appetite: 1 (12.5%)
  AE: Microscopic hematuria: 0
  AE: Nausea: 2 (25.0%)
  AE: Reduced appetite: 1 (12.5%)
  AE: Reduced bowel motion: 0
  AE: Reflux: 0
  AE: Throat discomfort: 0
  AE: Vomiting: 2 (25.0%)
  Life-threatening TEAE: 0
  Moderate TEAEs: 2
  Related TEAEs: 4
  Serious TEAEs: 1
  Severe TEAEs: 1
  TEAE leading to death: 0
  TEAEs: 6
SAD Cohorts 1-5, single SC dose 0.5-7.5 mg, preliminary and blinded data
  safety and tolerability: generally well-tolerated

Source: US20240390464A1, “Treatment of Adults With Overweight or Obesity With or Without Weight-Related Comorbidities” (Carmot Therapeutics Inc., priority 2023, published 2024)
